# Experimental data from patent publication US20110250632A1 (priority 2008, published 2011).
# Test system: adenylate cyclase
# Experiment: cAMP assay of cryopreserved AD293 cells, forskolin stimulation
# Type: cell-based, human
# Text: As a control, rise in intracellular cAMP concentrations was also separately monitored when the ubiquitously expressed adenylate cyclase activity was challenged with its respective agonist forskolin. In the AD293 cell line only the adenylate cyclase activity was monitored.
# As the DiscoveRx assay systems are designed to monitor intracellular cAMP concentrations the assay medium is supplemented with the general phosphodiesterase inhibitor isobutylmethylxanthine (IBMX) at a final concentration of 1 mM.
# Forskolin assay—Forskolin (Sigma F6886-10 mg) was dissolved in DMSO to a stock concentration of 10 mM. This was then serially diluted using half-log dilutions to generate a final forskolin concentration range in the assay medium ranging from 316 μM-3.16 nM.
# DiscoveRx HITHUNTER™ cAMP II assay—This was performed according to the manufacturer's instructions and briefly involved the following. On resurrection from storage at −140° C., cells frozen on cell culture treated 96-well plates were allowed to thaw. On defrosting the cryopreservation medium was removed and the cells washed twice with PBS. […]
# Typically for an assay performed in a 96-well cell culture treated plate 20,000 cells were used. […] The assay plates were incubated at room temperature for 4 hrs and the cAMP concentration determined by monitoring the generation of the luminescent signal using the LEADSEEKER™ Instrument platform.
smiles,measurement,setting,value
"C=C[C@@]1(C)CC(=O)[C@]2(O)[C@@]3(C)[C@@H](O)CCC(C)(C)[C@@H]3[C@H](O)[C@H](OC(C)=O)[C@@]2(C)O1 [forskolin, Forskolin]",S:B,minus poly lysine,2.5
same,S:B,plus poly-lysine,3.0
